Laboratory results taken from paper PMC12291913 (Antibiotics, 2025).
≈ marks a conversion by molar mass, not a printed value. Where “and” joins values, the source holds several entries; their conditions need not be identical. Identical values can stand only once. Like-named read-outs stand apart in the source and are kept apart here.

Key:
[1] = system: M. avium clinical isolate Cl-A-2 (GyrA Asp95Tyr); format: cell-based, M. avium subsp. hominissuis
[2] = system: M. avium clinical isolate Koav 15 (WT); assay: microbe, parasite or virus in culture; format: cell-based; settings: Koav 15 (K 15), WT
[3] = system: M. avium clinical isolate Koav 19 (WT); assay: microbe, parasite or virus in culture; format: cell-based; settings: Mycobacterium avium
[4] = system: M. avium clinical isolate Koav 20 (WT); assay: microbe, parasite or virus in culture; format: cell-based; settings: Koav 20 (K 20), WT; for MIC: Mycobacterium avium
[5] = system: M. avium clinical isolate Koav 25 (WT); assay: microbe, parasite or virus in culture; format: cell-based; settings: Mycobacterium avium
[6] = system: M. avium clinical isolate Koav 2 (WT); assay: microbe, parasite or virus in culture; format: cell-based; settings: Mycobacterium avium, drug alone, day 14
[7] = system: M. avium clinical isolate Koav 19 (WT); assay: microbe, parasite or virus in culture; format: cell-based; settings: Koav 19 (K 19), WT
[8] = system: M. avium clinical isolate Koav 20 (WT); assay: microbe, parasite or virus in culture; format: cell-based; settings: Mycobacterium avium
[9] = system: M. avium clinical isolate Koav 3 (GyrA Asp95Gly); format: cell-based, M. avium subsp. hominissuis
[10] = system: M. avium clinical isolate Koav 25 (WT); assay: microbe, parasite or virus in culture; format: cell-based; settings: Koav 25 (K 25), WT; for MIC: Mycobacterium avium
[11] = system: M. avium clinical isolate Koav 1 (WT); assay: microbe, parasite or virus in culture; format: cell-based; settings: Koav 1 (K 1), WT; for MIC: Mycobacterium avium
[12] = system: M. avium clinical isolate Koav 21 (WT); assay: microbe, parasite or virus in culture; format: cell-based; settings: Koav 21 (K 21), WT; for MIC: Mycobacterium avium
[13] = system: M. avium clinical isolate Koav 1 (WT); assay: microbe, parasite or virus in culture; format: cell-based; settings: Mycobacterium avium
[14] = system: M. avium clinical isolate Koav 13 (GyrA Asp95Gly); format: cell-based, M. avium subsp. hominissuis
[15] = system: M. avium clinical isolates; format: cell-based, M. avium subsp. hominissuis; settings: for range of mean FICIms: over isolates, WQ-3810 and MXF together
[16] = system: M. avium clinical isolate Koav 2 (WT); assay: microbe, parasite or virus in culture; format: cell-based; settings: Koav 2 (K 2), WT; for MIC: Mycobacterium avium
[17] = system: M. avium clinical isolate Cl-A-2 (GyrA Asp95Tyr); format: cell-based, M. avium subsp. hominissuis; remark: listed apart in the source
[18] = system: M. avium clinical isolate Koav 11 (GyrA Asp95Tyr); format: cell-based, M. avium subsp. hominissuis
[19] = system: M. avium clinical isolate Koav 13 (GyrA Asp95Gly); format: cell-based, M. avium subsp. hominissuis; remark: listed apart in the source
[20] = system: M. avium clinical isolate Koav 11 (GyrA Asp95Tyr); format: cell-based, M. avium subsp. hominissuis; remark: listed apart in the source
[21] = system: M. avium clinical isolate Koav 3 (GyrA Asp95Gly); format: cell-based, M. avium subsp. hominissuis; remark: listed apart in the source
[22] = system: M. avium clinical isolates; format: cell-based, M. avium subsp. hominissuis
[23] = system: M. avium clinical isolate Koav 21 (WT); assay: microbe, parasite or virus in culture; format: cell-based; settings: Mycobacterium avium
[24] = Mycobacterium avium, checkerboard, single replicates, read-out: MIC of drug alone
[25] = drug alone, day 14, read-out: MIC
[26] = checkerboard (with 1 µg/ml INH)
[27] = checkerboard, single replicates
[28] = checkerboard (with 1 µg/ml INH), read-out: MIC of FQ with INH
[29] = checkerboard, single replicates, read-out: MIC of drug alone
[30] = checkerboard (S2: with 1 µg/ml EMB), read-out: MIC of FQ with EMB
[31] = FQ-resistant isolates, MIC assay

## Cc1c(N2CC(N(C)C)C2)c(F)cc2c(=O)c(C(=O)O)cn(-c3nc(N)c(F)cc3F)c12 [WQ-3810]
[1]
  MIC: 4 µg/mL (≈ 8.94 µM)
  MIC with 1 µg/mL EMB: 1 (×0.25) µg/mL
  MIC with 1 µg/mL INH: 1(×0.25) µg/mL
[2]; FQ with EMB
  mean FICIm: 0.71
[2]; FQ with INH
  mean FICIm: 0.33
[2]; FQ+EMB, single replicates
  FICIm: 0.75 and 0.625
[2]; FQ+INH, single replicates
  FICIm: 0.25 and 0.5 and 0.2812
[2]; [24]
  MIC: 1 µg/mL
[3]; [25]
  MIC: 0.5 µg/mL (≈ 1.12 µM)
[3]; read-out: MIC with 1 µg/mL EMB
  MIC: 0.25 µg/mL (≈ 0.559 µM)
[3]; read-out: MIC with 1 µg/mL INH
  MIC: 0.13 µg/mL (≈ 0.291 µM)
[4]; FQ with EMB
  mean FICIm: 0.66
[4]; FQ with INH
  mean FICIm: 0.25
[4]; FQ+EMB, single replicates
  FICIm: 0.625 and 0.75
[4]; FQ+INH, single replicates
  FICIm: 0.25
[4]; [26]
  MIC of FQ with INH: 0.0625 µg/mL
[4]; [27]
  MIC of drug alone: 0.5 µg/mL
[4]; [28]
  MIC: 0.0312 µg/mL
[4]; [29]
  MIC: 0.25 µg/mL
[5]; [25]
  MIC: 1 µg/mL (≈ 2.24 µM)
[5]; read-out: MIC with 1 µg/mL EMB
  MIC: 0.5 µg/mL (≈ 1.12 µM)
[5]; read-out: MIC with 1 µg/mL INH
  MIC: 0.5 µg/mL (≈ 1.12 µM)
[6]
  MIC: 0.5 µg/mL (≈ 1.12 µM)
[7]; FQ with EMB
  mean FICIm: 0.85
[7]; FQ with INH
  mean FICIm: 0.45 and 0.46
[7]; FQ+EMB, single replicates
  FICIm: 1 and 0.625
[7]; FQ+INH, single replicates
  FICIm: 0.5312 and 0.5 and 0.375
[7]; [27]
  MIC of drug alone: 0.5 µg/mL
[7]; [24]
  MIC: 0.25 µg/mL
[8]; [25]
  MIC: 0.125 µg/mL (≈ 0.279 µM)
[8]; read-out: MIC with 1 µg/mL EMB
  MIC: 0.13 µg/mL (≈ 0.291 µM)
[8]; read-out: MIC with 1 µg/mL INH
  MIC: 0.13 µg/mL (≈ 0.291 µM)
[9]
  MIC: 4 µg/mL (≈ 8.94 µM)
  MIC with 1 µg/mL EMB: 4 (×1) µg/mL
  MIC with 1 µg/mL INH: 2 (×0.5) µg/mL
[10]; FQ with EMB
  mean FICIm: 0.75
[10]; FQ with INH
  mean FICIm: 0.39
[10]; FQ+EMB, single replicates
  FICIm: 0.75
[10]; FQ+INH, single replicates
  FICIm: 0.5 and 0.375 and 0.3125
[10]; pair with EMB
  FIC of FQ: 0.25 µg/mL
[10]; [30]
  MIC: 0.25 µg/mL
[10]; [29]
  MIC: 1 µg/mL
[11]; FQ with EMB
  mean FICIm: 0.62
[11]; FQ with INH
  mean FICIm: 0.45
[11]; FQ+EMB, single replicates
  FICIm: 0.625 and 0.5 and 0.75
[11]; FQ+INH, single replicates
  FICIm: 0.5 and 0.375
[11]; [27]
  MIC of drug alone: 0.25 µg/mL
[11]; [28]
  MIC: 0.0312 µg/mL
[11]; [29]
  MIC: 0.125 µg/mL
[12]; FQ with EMB
  mean FICIm: 0.75
[12]; FQ with INH
  mean FICIm: 0.41
[12]; FQ+EMB, single replicates
  FICIm: 0.75
[12]; FQ+INH, single replicates
  FICIm: 0.375 and 0.5312
[12]; [26]
  MIC of FQ with INH: 1 µg/mL
[12]; [30]
  MIC: 0.5 µg/mL
[12]; [28]
  MIC: 0.5 µg/mL
[12]; [29]
  MIC: 2 µg/mL
[13]; [25]
  MIC: 0.125 µg/mL (≈ 0.279 µM)
[13]; read-out: MIC with 1 µg/mL EMB
  MIC: 0.01 µg/mL (≈ 0.0224 µM)
[13]; read-out: MIC with 1 µg/mL INH
  MIC: 0.03 µg/mL (≈ 0.0671 µM)
[14]
  MIC of FQ with EMB: 4 µg/mL and 2 µg/mL
  MIC of drug alone: 8 µg/mL and 4 µg/mL
[15]; in combination with EMB, mean FICIm between 0.5 and 1 additive
  interaction: additive
[15]; in combination with INH, FICIm ≤ 0.5 regarded as synergistic
  interaction: synergistic
[15]; with EMB
  range of mean FICIms: 0.41 to 0.91
[15]; with INH
  range of mean FICIms: 0.19 to 0.71
[16]; FQ with EMB
  mean FICIm: 0.91
[16]; FQ with INH
  mean FICIm: 0.25
[16]; FQ+EMB, single replicates
  FICIm: 0.75 and 1
[16]; FQ+INH, single replicates
  FICIm: 0.25
[16]; checkerboard (S2: with 1 µg/ml EMB)
  MIC of FQ with EMB: 0.25 µg/mL
[16]; [30]
  MIC: 0.125 µg/mL
[16]; [28]
  MIC: 0.0625 µg/mL
[16]; [29]
  MIC: 0.5 µg/mL
[17]
  MIC of FQ with EMB: 1 µg/mL and 0.5 µg/mL
  MIC of FQ with INH: 0.5 µg/mL and 0.25 µg/mL
  mean FICIm: 0.53 and 0.66
[18]
  MIC: 4 µg/mL (≈ 8.94 µM)
  MIC with 1 µg/mL EMB: 4 (×1) µg/mL
  MIC with 1 µg/mL INH: 4 (×1) µg/mL
[19]
  MIC: 8 µg/mL (≈ 17.9 µM)
  MIC with 1 µg/mL EMB: 4 (×0.5) µg/mL
  MIC with 1 µg/mL INH: 4 (×0.5) µg/mL
[20]
  MIC of FQ with EMB: 2 µg/mL
  MIC of FQ with INH: 1 µg/mL and 0.5 µg/mL
  MIC of drug alone: 4 µg/mL
  mean FICIm: 0.46 and 0.83
[21]
  FICIm: 0.75
  MIC of FQ with EMB: 1 µg/mL and 2 µg/mL
  MIC of FQ with INH: 1 µg/mL and 2 µg/mL
  MIC of drug alone: 4 µg/mL
  mean FICIm: 0.71 and 0.75
[22]
  MIC range: 4 to 8 µg/mL
[22]; [31]
  higher antimicrobial activity than CIP: 4 to 8 fold
  higher antimicrobial activity than LVX: 2 to 16 fold
  higher antimicrobial activity than MXF: 2 to 4 fold
[22]; WT isolates
  MIC range: 0.125 to 1 µg/mL
[23]; [25]
  MIC: 1 µg/mL (≈ 2.24 µM)
[23]; read-out: MIC with 1 µg/mL EMB
  MIC: 1 µg/mL (≈ 2.24 µM)
[23]; read-out: MIC with 1 µg/mL INH
  MIC: 1 µg/mL (≈ 2.24 µM)
